{"source": "patent US10485814B2", "about": "“Nicotinamide riboside analogs and pharmaceutical compositions and uses thereof” (GlaxoSmithKline Intellectual Property (No. 2) Limited, priority 2014, dated 2019)", "key": {"[1]": {"tested_on": "HaCaT cells (a human keratinocyte cell line)", "experiment": "Intracellular NAD measurement in HaCaT cells (ADPR cyclase enzymatic assay, absorbance 405 nm)", "assay_type": "cell-based", "procedure": "HaCaT cells (AddexBio Technologies, San Diego, Calif., Passage 16-19) were grown in Medium DMEM/GlutMax (Life technologies, Grand Island, N.Y.) supplemented with 10% FBS (Life technologies) and Non-essential amino acids (NEAA, Life technologies) and then seeded in 12-well plates (Corning, Tewksbury, Mass.) with a density at 2×10^5 cells per well and 2 ml of culture medium in each well for overnight.\nStock solution of dihydronicotinamide riboside (NRH, GSK3008320A, GSK, RTP, NC) was prepared in ethanol at 100 mM (25.6 mg/ml) and stored at −20° C. Cells were treated with different concentrations of NRH for 3 hrs, washed twice with PBS containing 5 mM EDTA, and then subject to Nicotinamide adenine dinucleotide (NAD) measurement. In brief, acetonitrile (ACN) lysis buffer (Ammonium Acetate (50 mM) and 90% acetonitrile) was added to each well (200 μl/well) to lyse the cells at RT for 5-10 mins by gently rotating on a culture plate shaker at a low speed. Enzyme master mix (300 μM of 5-Amino-(3,4′-bipyridin)-6(1H)-one (Inamrinone) (Sigma-Aldrich), a substrate for ADP ribosyl cyclase (ADPR cyclase)) and 30 nM ADPR Cyclase (Sigma, St. Louis, Mo.), 7.5 μM of N-(2-fluoro-4-(methylsulfonyl)phenyl)-2-methyl-6-(thiazol-5-yl)isonicotinamide (a CD38 inhibitor) in 75 mM HEPES pH7 buffer (Life Technologies)) was added to the lysed cells (400 μl of enzyme master mix/well). Enzymatic reaction was incubated at RT for ˜30 min. At the end of incubation, the supernatant (200 μl) of the reaction solution from each well was transferred to each well of a 96-well plate and absorbance was read twice in the 96-well plate at 405 nm using a plate reader (Spectra Maxplus, Molecular Devices, Sunnyvale, Calif.). A mixture of enzyme master mix and ACN extraction solution at 2:1 ratio was used as a blank reference. NAD (Sigma) was used as a positive control.\nHaCaT cells were grown as described in example 23 in the regular cell culture DMEM medium as described earlier or in the Epilife medium without nacinamide (Life Technologies). Cells were treated with different concentrations of NRH or niacinamide (NIA, DSM nutritional products) for 3 hrs, washed twice with PBS containing 5 mM EDTA, and then subject to Nicotinamide adenine dinucleotide (NAD) measurement as described in example 23. A mixture of enzyme master mix and ACN extraction solution at 2:1 ratio for a blank reference. NAD (Sigma) was used as a positive control. […] Both the CD38 inhibitor and Niacinamide increased NAD in the HaCaT cells cultured in the Vit B3 depleted culture medium, and the induction of NAD by niacinamide was dose-dependent (solid bars). However, the induction of NAD by niacinamide (highest at ˜1.5 fold) was low compared to those by NRH. Therefore, NRH is a stronger NAD inducer compared to a CD38 inhibitor or Niacinamide.\n(§1) HaCaT cells were grown in regular culture media as described in example 1 and seeded in 12-well plates with density at 2×10^5 cells per well and 1 ml of culture medium in each well. NRH stock solution was prepared in ethanol at 100 mM (25.6 mg/ml) and stored at −20° C. Stock solutions of NRH esters were made at 50 mM in DMSO (see FIG. 9B for compound info). Cells were treated with NRH esters and NRH at 150 μM for 6 and 16 hrs, washed twice with PB S containing 5 mM EDTA, and then subject to Nicotinamide adenine dinucleotide (NAD) measurement as described in example 23.\nHaCaT cells were grown in regular culture media as described above and seeded in 12-well plates with density at 2×10^5 cells per well and 1 ml of culture medium in each well. NRH stock solution was prepared in ethanol at 100 mM (25.6 mg/ml) and stored at −20° C. NRH (200 μM) was used as a positive control. Because of the possible solubility issue related to NRH monoC16, fatty acid-free bovine serum albumin (defatted BSA, Sigma) was used as a carrier for the compound. NRH monoC16 stock solution (100×) was complexed with defatted BSA ([…]) prior to the treatment, resulting in a NRH monoC16 stock solution (10 ×). […]"}, "[2]": {"tested_on": "Reconstructed human epidermis (EpiDerm, EPI-200)", "experiment": "UVB-induced inflammation mediators in reconstructed epidermal equivalents", "assay_type": "cell-based", "conditions": "topical 1 hr pre-treatment, NRH 0.1% or niacinamide 3%, UVB 150 mJ/cm^2, media 6 hr post irradiation", "from_the_text": "Solar Ultraviolet (UV) light exposure on skin causes photoaging, sunburn, DNA damages and carcinogenesis. UV radiation (UVR) also results in inflammation, which can be measured in vitro by pro-inflammatory mediators, e.g., TNF-α, IL-8. The in vitro reconstructed human epidermis (RHE) model is used to evaluate the anti-inflammatory effect of NRH.\nReconstructed human epidermis (EpiDerm, EPI-200, made of normal human epidermal keratinocytes, MatTek, Ashland, Mass.), were placed into media (EPI-100-ASY, 1.0 ml/well of 6-well plates) and incubated overnight at 37° C./5% CO2. The media was replenished with fresh culture media prior to study. NRH at 0.1% and niacinamide at 3% in vehicle (50% H2O/35% ethanol/15% propylene glycol, v/v/v) were applied topically at 6 μl and then gently spread onto the skin equivalents (˜20 rotations) using the rubber side of a plunger of 1 ml syringe. Vehicle was served as an untreated control. After 1 hr pre-treatment with NRH, niacinamide, or vehicle control, the EpiDerm tissues were transferred to a sterile 6-well plate containing 1 ml of DPBS per well and then exposed to UVB at 150 mJ/cm^2. The Newport Solar Simulator System (Power unit 69920, and Lamp 91192-1000, Newport Corporate, Irvine, Calif.) was used as the UVB emitter to achieve a UVB irradiation of 150 mJ/cm^2. Measurement of the irradiation was taken using an ILT-1400 Handheld, Portable Radiometer/Photometer (International Light Technologies, Inc., Peabody, Mass.) with a UVB detector (SEL240/T2ACT5, 235-307 nm, International Light Technologies, Inc.). After UVB irradiation, EpiDerm tissues were transferred back to the 6-well plate containing media and incubated at 37° C./5% CO2 for 6 hours. At the end of the incubation (6 hr post UVB irradiation), culture media were collected for the measurement of IL-8, and TNF-α concentration by MagPix (Millipore, HCYTOMAG-60K)."}, "[3]": {"tested_on": "HaCaT cells", "experiment": "H2O2-induced reactive oxygen species (ROS) in HaCaT cells (CellROX deep red)", "assay_type": "cell-based, human", "conditions": "3 hr pre-incubation then 250 μM H2O2, Hydroxyterosol 0.005%, niacinamide 4.5 mM, NRH several concentrations", "procedure": "HaCaT cells were grown as described in example 23 and were seeded in 96-well plates (Nunc™ black with optical bottom, Thermo Fisher Scientific, Inc., Waltham, Mass.) with a density at 2×10^4 cells per well and 100 μl medium in each well, and grown overnight before treatments. Stock solutions of NRH and other test compounds were prepared and diluted to 2× of final treatment concentrations in DMEM medium in 96-well storage plate as indicated in the FIG. 11. HaCaT Cells were treated in triplicates by adding 100 μl of diluted solutions of test compounds (2×) to each well containing 100 μl medium already. Cells were incubated in the presence of test compounds for 3 hrs. At the end of 3 hr incubation, cells were washed once with 200 μl DPBS with Ca^++ and Mg^++ (Life Technologies) and then fed with 100 μl DMEM medium each well containing H2O2 at 250 μM (as a ROS (reactive oxygen species) inducer, Sigma). After 30 min incubation, cells were washed once with 200 μl DPBS with Ca^++ and Mg^++ and CellROX deep red reagent (2.5 mM stock solution, Life Technologies) was added to the medium to a final concentration of 5 μM. After 1 hr incubation at 37° C., 5% CO2, Cells were washed for 3 times with DPBS, fluorescence signal was read at Ex. 640 nm and Em. 665 nm in Biotek Synergy H4 microplate reader (BioTek, Winooski, Vt.). Untreated cells were served as controls (normalized to 1). All the treated samples were normalized to the untreated control."}, "[4]": {"tested_on": "Human dermal fibroblasts", "experiment": "TNFα-induced gene expression in dermal fibroblasts (QPCR)", "assay_type": "cell-based", "conditions": "TNFα 10 ng/ml, 30 hr", "procedure": "Human dermal fibroblasts were grown in regular culture media as described in example 23 above and seeded in 12-well plates at 2×10^5 cells per well for overnight. Cells were then replenished with fresh medium and treated with TNFα (10 ng/ml) with and without NRH (200 μM) for 30 hr. At the end of the incubation, cells were washed once with HBSS with Ca^2+ and Mg^2+ (Life Technologies), and subject to RNA isolation and QPCR analyses."}, "[5]": {"experiment": "Precipitation on addition of stock solution to cell culture media", "assay_type": "physicochemical", "procedure": "as §1\nHaCaT cells were grown in regular culture media as described above and seeded in 12-well plates with density at 2×10^5 cells per well and 1 ml of culture medium in each well. NRH stock solution was prepared in ethanol at 100 mM (25.6 mg/ml) and stored at −20° C. NRH (200 μM) was used as a positive control. Because of the possible solubility issue related to NRH monoC16, fatty acid-free bovine serum albumin (defatted BSA, Sigma) was used as a carrier for the compound. NRH monoC16 stock solution (100×) was complexed with defatted BSA ([…]) prior to the treatment, resulting in a NRH monoC16 stock solution (10 ×). NRH monoC16 was then added to the culture media giving a final BSA concentration of 100 μM. […] Defatted BSA was also added to the control samples at a final concentration of 100 μM. […]"}, "[6]": {"experiment": "Gravimetric Vapor Sorption (GVS)", "assay_type": "physicochemical", "conditions": "90% RH, 25° C.", "procedure": "Gravimetric Vapor Sorption (GVS): Samples were analyzed using a VTI corporation (now part of TA Instruments) SGA-100 with Cahn microbalance equipped with quartz sample and reference pans. Samples were dried in the SGA-100 under dry nitrogen for 5 hours at 25° C. followed by a moisture absorption step ramp from 5% relative humidity (RH) to 95% or 90% RH followed by a desorption step ramp back to 5% or 10% RH (all steps at 25° C.). The samples were held at each % RH step for 4 hours."}, "[7]": {"conditions": "HaCaT in Vit B3 depleted culture medium, 3 hrs"}}}
{"compound": "NC(=O)c1cccnc1", "note": "[Niacinamide, pyridine-3-carboxamide, reference compound]", "values": [{"measurement": "NAD elevation", "setting": "[1]; HaCaT in DMEM medium with Vit B3, highest tested doses, 3 hrs", "value": "did not lead to NAD elevation"}, {"measurement": "NAD level", "setting": "[1]; [7]", "value": "increased NAD"}, {"measurement": "dose dependence of induction of NAD", "setting": "[1]; [7]", "value": "dose-dependent"}, {"measurement": "induction of NAD (highest)", "setting": "[1]; [7]", "value": "~1.5", "unit": "fold"}, {"measurement": "UVB-induced IL-8", "setting": "[2]", "value": "not"}, {"measurement": "UVB-induced TNF-α", "setting": "[2]", "value": "not"}, {"measurement": "UVB-induced IL-8", "setting": "[2]; listed as niacinamide", "value": "did not inhibit"}, {"measurement": "UVB-induced TNF-α", "setting": "[2]; listed as niacinamide", "value": "did not inhibit"}, {"measurement": "H2O2-induced ROS", "setting": "[3]", "value": "did not inhibit"}]}
{"compound": "TNF-α", "values": [{"measurement": "COX-2 gene expression", "setting": "[4]", "value": "induced COX-2 gene expression"}]}
{"compound": "CCCCCCCCCCCCCCCC(=O)OC[C@H]1O[C@@H](N2C=CCC(C(N)=O)=C2)[C@H](O)[C@@H]1O", "note": "[NRH monoC16]", "values": [{"measurement": "NAD boosting activity", "setting": "[1]; HaCaT, 150 μM, 6 and 16 hrs", "value": "higher NAD boosting activity compared to all the other tested NR esters"}, {"measurement": "activity after 24 hr compared with 6 hr treatment", "setting": "[1]; HaCaT, defatted BSA carrier", "value": "a higher activity was observed"}, {"measurement": "NAD levels", "setting": "[1]; HaCaT, different concentrations, defatted BSA carrier (100 μM), 6 and 24 hrs", "value": "increases NAD levels in a dose dependent manner"}, {"measurement": "NAD boosting activity relative to NRH", "setting": "[1]; HaCaT, same concentrations, defatted BSA carrier", "value": "slightly lower than that of NRH"}, {"measurement": "precipitation when stock solution added to the media", "setting": "[5]; 50 mM DMSO stock added to culture media, 150 μM", "value": "noticeable precipitations occurred"}, {"measurement": "precipitation in culture media", "setting": "[5]; stock complexed with defatted BSA, final BSA 100 μM", "value": "no precipitation was observed"}, {"measurement": "GVS weight gain from the dried state", "setting": "[6]", "value": "approximately 7%"}]}
